Measured values: ChEMBL document CHEMBL6114969, “Ultra-short lipopeptides containing d-amino acid exhibiting excellent stability and antibacterial activity against gram-positive bacteria” (Eur J Med Chem, 2025)
Converted amounts (≈) assume the structure as drawn. The source made the active and inactive calls. The calls are words filed in the database; no cut-off is given here. Where a SMILES comes first, the peptide text is derived from it. Bridges are numbered along the chain shown (N, C = ends). [ ]: non-standard residue; d: D form. The star is where a group is joined. X1 = CC[C@H](C)CCCCC(=O)*; Dab = NCC[C@H](N)C(=O)O

How the values were obtained:
Enterococcus faecalis = assay: Antibacterial activity against Enterococcus faecalis ATCC 29212 incubated for 18 to 24 hrs by broth microdilution method; assay type: functional; settings: time 18-24 hrs
Staphylococcus aureus [1] = assay: Antibacterial activity against methicillin-resistant Staphylococcus aureus ATCC 33591 incubated for 18 to 24 hrs in presence of 2 mg/ml of pepsin by broth microdilution method; assay type: functional; settings: time 18-24 hrs
Staphylococcus aureus [2] = assay: Antibacterial activity against methicillin-resistant Staphylococcus aureus ATCC 33591 assessed as fold change in MIC incubated for 18 to 24 hrs in presence of 10 percent FBS by broth microdilution method; assay type: functional; settings: time 18-24 hrs
Staphylococcus aureus [3] = assay: Antibacterial activity against methicillin-resistant Staphylococcus aureus ATCC 33591 incubated for 18 to 24 hrs in presence of 1 mg/ml of trypsin by broth microdilution method; assay type: functional; settings: time 18-24 hrs
Staphylococcus aureus [4] = assay: Antibacterial activity against Staphylococcus aureus ATCC 25923 incubated for 18 to 24 hrs by broth microdilution method; assay type: functional; settings: time 18-24 hrs
Staphylococcus aureus [5] = assay: Antibacterial activity against methicillin-resistant Staphylococcus aureus ATCC 33591 incubated for 18 to 24 hrs in presence of 0.5 mg/ml of trypsin by broth microdilution method; assay type: functional; settings: time 18-24 hrs
Staphylococcus aureus [6] = assay: Antibacterial activity against methicillin-resistant Staphylococcus aureus ATCC 33591 assessed as fold change in MIC incubated for 18 to 24 hrs in presence of 10 percent mouse serum by broth microdilution method; assay type: functional; settings: time 18-24 hrs
Staphylococcus aureus [7] = assay: Antibacterial activity against methicillin-resistant Staphylococcus aureus ATCC 33591 incubated for 18 to 24 hrs in presence of 0.5 mg/ml of chymotrypsin by broth microdilution method; assay type: functional; settings: time 18-24 hrs
Staphylococcus aureus [8] = assay: Antibacterial activity against methicillin-resistant Staphylococcus aureus ATCC 33591 incubated for 18 to 24 hrs in presence of 2 mg/ml of trypsin by broth microdilution method; assay type: functional; settings: time 18-24 hrs
Staphylococcus aureus [9] = assay: Antibacterial activity against methicillin-resistant Staphylococcus aureus ATCC 33591 incubated for 18 to 24 hrs in presence of 1 mg/ml of pepsin by broth microdilution method; assay type: functional; settings: time 18-24 hrs
Staphylococcus aureus [10] = assay: Antibacterial activity against methicillin-resistant Staphylococcus aureus ATCC 33591 incubated for 18 to 24 hrs in presence of 1 mg/ml of chymotrypsin by broth microdilution method; assay type: functional; settings: time 18-24 hrs
Staphylococcus aureus [11] = assay: Antibacterial activity against methicillin-resistant Staphylococcus aureus ATCC 33591 assessed as fold change in MIC incubated for 18 to 24 hrs in presence of MgCl2 by broth microdilution method; assay type: functional; settings: time 18-24 hrs
Staphylococcus aureus [12] = assay: Antibacterial activity against Staphylococcus aureus ATCC 29213 incubated for 18 to 24 hrs by broth microdilution method; assay type: functional; settings: time 18-24 hrs
[13] = Hemolytic activity in mouse Red blood cells incubated for 1 hr by absorbance based analysis; assay type: toxicity, cell-based; settings: erythrocyte
Staphylococcus aureus [14] = assay: Antibacterial activity against methicillin-resistant Staphylococcus aureus ATCC 33591 incubated for 18 to 24 hrs in presence of 0.5 mg/ml of pepsin by broth microdilution method; assay type: functional; settings: time 18-24 hrs
[15] = system: Staphylococcus epidermidis; assay: Antibacterial activity against Staphylococcus epidermidis ATCC 12228 incubated for 18 to 24 hrs by broth microdilution method; assay type: functional; settings: time 18-24 hrs
Staphylococcus aureus [16] = assay: Antibacterial activity against methicillin-resistant Staphylococcus aureus ATCC 33591 incubated for 18 to 24 hrs in presence of 2 mg/ml of chymotrypsin by broth microdilution method; assay type: functional; settings: time 18-24 hrs
Staphylococcus aureus [17] = assay: Antibacterial activity against methicillin-resistant Staphylococcus aureus ATCC 33591 incubated for 18 to 24 hrs by broth microdilution method; assay type: functional; settings: time 18-24 hrs
[18] = Retention time of compound by RP-HPLC analysis; assay type: physicochemical
Staphylococcus aureus [19] = assay: Antibacterial activity against methicillin-resistant Staphylococcus aureus ATCC 33591 assessed as fold change in MIC incubated for 18 to 24 hrs in presence of NaCl by broth microdilution method; assay type: functional; settings: time 18-24 hrs
Staphylococcus aureus [20] = assay: Antibacterial activity against drug-resistant Staphylococcus aureus ATCC 25923 incubated for 18 to 24 hrs; assay type: functional; settings: time 18-24 hrs
Staphylococcus aureus [21] = assay: Antibacterial activity against polymyxin B-resistant Staphylococcus aureus ATCC 25923 incubated for 18 to 24 hrs; assay type: functional; settings: time 18-24 hrs
Staphylococcus aureus [22] = assay: Antibacterial activity against ciprofloxacin-resistant methicillin-resistant Staphylococcus aureus ATCC 33591 incubated for 18 to 24 hrs; assay type: functional; settings: time 18-24 hrs
Staphylococcus aureus [23] = assay: Antibacterial activity against methicillin-resistant Staphylococcus aureus ATCC 33591 infected in Balb/c mouse model of skin wound infection assessed as crusted back wound at 10 mg/kg, ip administered thrice at 1, 24 and 48 hrs post-infection measured after 9 days relative to control; assay type: functional; settings: time 9 day
Staphylococcus aureus [24] = assay: Antibacterial activity against gentamicin-resistant methicillin-resistant Staphylococcus aureus ATCC 33591 incubated for 18 to 24 hrs; assay type: functional; settings: time 18-24 hrs
Staphylococcus aureus [25] = assay: Antibacterial activity against ciprofloxacin-resistant Staphylococcus aureus ATCC 25923 incubated for 18 to 24 hrs; assay type: functional; settings: time 18-24 hrs
Staphylococcus aureus [26] = assay: Antibacterial activity against drug-resistant methicillin-resistant Staphylococcus aureus ATCC 33591 incubated for 18 to 24 hrs; assay type: functional; settings: time 18-24 hrs
Staphylococcus aureus [27] = assay: Antibacterial activity against gentamicin-resistant Staphylococcus aureus ATCC 25923 incubated for 18 to 24 hrs; assay type: functional; settings: time 18-24 hrs
Staphylococcus aureus [28] = assay: Antibacterial activity against polymyxin B-resistant methicillin-resistant Staphylococcus aureus ATCC 33591 incubated for 18 to 24 hrs; assay type: functional; settings: time 18-24 hrs
Staphylococcus aureus [29] = assay: Antibacterial activity against methicillin-resistant Staphylococcus aureus ATCC 33591 infected in Balb/c mouse model of skin wound infection assessed as wound heal at 10 mg/kg, ip administered thrice at 1, 24 and 48 hrs post-infection measured after 14 days relative to control; assay type: functional; settings: time 14 day
Staphylococcus aureus [30] = assay: Induction of drug resistance in Staphylococcus aureus ATCC 25923 at sub-MIC measured after 2 passages; assay type: functional, organism-based
[31] = Stability in mouse serum assessed as compound degradation measured upto 96 hrs by RP-HPLC analysis; assay type: ADME, cell-free; settings: read-out: Drug degradation
[32] = Stability in mouse serum assessed as half life measured upto 96 hrs by RP-HPLC analysis; assay type: ADME, cell-free

SMILES | MIC (Enterococcus faecalis) | MIC (Staphylococcus aureus [1]) | fold change (FC) (Staphylococcus aureus [2]) | MIC (Staphylococcus aureus [3]) | MIC (Staphylococcus aureus [4]) | MIC (Staphylococcus aureus [5]) | fold change (FC) (Staphylococcus aureus [6]) | MIC (Staphylococcus aureus [7]) | MIC (Staphylococcus aureus [8]) | MIC (Staphylococcus aureus [9]) | MIC (Staphylococcus aureus [10]) | fold change (FC) (Staphylococcus aureus [11]) | MIC (Staphylococcus aureus [12]) | HC10 [13] | MIC (Staphylococcus aureus [14]) | MIC [15] | MIC (Staphylococcus aureus [16]) | MIC (Staphylococcus aureus [17]) | Retention_time [18] | fold change (FC) (Staphylococcus aureus [19]) | also measured
CCCCCCCCCCCC(=O)N[C@@H](CCCNC(=N)N)C(=O)N[C@@H](CCCNC(=N)N)C(=O)N[C@H](Cc1c[nH]c2ccccc12)C(=O)O | 16 µM (≈ 11.2 µg/mL) | 128 µM | 8 | > 128 µM | 4 µM (≈ 2.8 µg/mL) | > 128 µM | 4 | > 128 µM | > 128 µM | 128 µM | > 128 µM | <3 | 4 µM (≈ 2.8 µg/mL) | 128 µM | 16 µM | 2 µM (≈ 1.4 µg/mL) | > 128 µM | 4 µM (≈ 2.8 µg/mL) | 18.476 min | <3 | 
CC(C)CCCCC(=O)N[C@@H](CCN)C(=O)N[C@H](C(=O)N[C@@H](CCN)C(=O)N[C@H]1CCNC(=O)[C@H]([C@@H](C)O)NC(=O)[C@H](CCN)NC(=O)[C@H](CCN)NC(=O)[C@H](CC(C)C)NC(=O)[C@@H](Cc2ccccc2)NC(=O)[C@H](CCN)NC1=O)[C@@H](C)O.CC[C@H](C)CCCCC(=O)N[C@@H](CCN)C(=O)N[C@H](C(=O)N[C@@H](CCN)C(=O)N[C@H]1CCNC(=O)[C@H]([C@@H](C)O)NC(=O)[C@H](CCN)NC(=O)[C@H](CCN)NC(=O)[C@H](CC(C)C)NC(=O)[C@@H](Cc2ccccc2)NC(=O)[C@H](CCN)NC1=O)[C@@H](C)O (X1-[Dab]T[Dab][Dab][Dab][dF]L[Dab][Dab]T; lactam 4-C) | 128 µM |  |  |  | 4 µM |  |  |  |  |  |  |  | 4 µM |  |  | 2 µM |  | 16 µM |  |  | MIC (Staphylococcus aureus [20]): > 128 µM; MIC (Staphylococcus aureus [21]): 512 µM; MIC (Staphylococcus aureus [22]): 4 µM; Activity (Staphylococcus aureus [23]): 100%; MIC (Staphylococcus aureus [24]): 128 µM; MIC (Staphylococcus aureus [25]): 128 µM; MIC (Staphylococcus aureus [26]): 128 µM; MIC (Staphylococcus aureus [27]): > 128 µM; MIC (Staphylococcus aureus [28]): 2050 µM; Activity (Staphylococcus aureus [29]): 100%
O=C(O)c1cn(C2CC2)c2cc(N3CCNCC3)c(F)cc2c1=O [CIPROFLOXACIN] | 2 µM (≈ 0.663 µg/mL) |  |  |  | 1 µM (≈ 0.331 µg/mL) |  |  |  |  |  |  |  | 1 µM (≈ 0.331 µg/mL) |  |  | ≤ 0.5 µM |  | 256 µM (≈ 84.8 µg/mL) |  |  | MIC (Staphylococcus aureus [20]): > 128 µM; Activity (Staphylococcus aureus [30]): Active; MIC (Staphylococcus aureus [21]): > 128 µM; MIC (Staphylococcus aureus [22]): 8190 µM (≈ 2710 µg/mL); MIC (Staphylococcus aureus [24]): 128 µM (≈ 42.4 µg/mL); MIC (Staphylococcus aureus [25]): 8190 µM (≈ 2710 µg/mL); MIC (Staphylococcus aureus [26]): > 128 µM; MIC (Staphylococcus aureus [27]): 128 µM (≈ 42.4 µg/mL); MIC (Staphylococcus aureus [28]): > 128 µM
CCCCCCCCCCCC(=O)N[C@@H](CCCNC(=N)N)C(=O)N[C@@H](CCCNC(=N)N)C(=O)N[C@@H](Cc1c[nH]c2ccccc12)C(=O)O | 8 µM (≈ 5.59 µg/mL) | 64 µM | 8 | > 128 µM | 4 µM (≈ 2.8 µg/mL) | > 128 µM | 4 | > 128 µM | > 128 µM | 32 µM | > 128 µM | <3 | 4 µM (≈ 2.8 µg/mL) | 128 µM | 16 µM | 2 µM (≈ 1.4 µg/mL) | > 128 µM | 4 µM (≈ 2.8 µg/mL) | 18.643 min | <3 | metabolised at 96 h [31]: ~100%; half-life [32]: 17.4 h
CCCCCCCCCCCC(=O)N[C@H](CCCNC(=N)N)C(=O)N[C@@H](CCCNC(=N)N)C(=O)N[C@@H](Cc1c[nH]c2ccccc12)C(=O)O | 8 µM (≈ 5.59 µg/mL) | 32 µM | 8 | 64 µM | 4 µM (≈ 2.8 µg/mL) | 64 µM | 4 | 16 µM | 128 µM | 16 µM | 32 µM | <3 | 4 µM (≈ 2.8 µg/mL) | 64 µM | 8 µM | 2 µM (≈ 1.4 µg/mL) | 128 µM | 4 µM (≈ 2.8 µg/mL) | 19.259 min | <3 | 
